Earlier results in patent US10864317B2, “Time controlled periodic infusion” (Ferrosan Medical Devices A/S, priority 2014, dated 2020).

System: peripheral nerve
Conditions: ropivacaine as LA; dependent on regional and individual differences

## CCCN1CCCC[C@H]1C(=O)Nc1c(C)cccc1C [ropivacaine]
  duration of pain relief for nerve blocks: about 12 h
